Reference: US5864033A, “Adenosine kinase inhibitors” (priority 1995, dated 1999)
Where “and” joins values, the source holds several entries; their conditions need not be identical. Equal entries are not always repeated. Entries after “also recorded” stand apart in the source; their conditions may differ.

Legend:
[1] = tested on: rat cardiomyocytes; details: cited from earlier work
[2] = tested on: dog hearts; details: cited from earlier work
[3] = tested on: isolated rat hearts; details: normoxic, hypoxic, anoxic or ischemic conditions; alone; cited from earlier work
[4] = tested on: mice; details: cited from earlier work
[5] = tested on: cardiac adenosine kinase; details: systemic or, in some cases, oral administration
[6] = tested on: isolated guinea pig hearts; details: absence of ADA inhibition; cited from earlier work
[7] = tested on: neutrophil adherence to endothelial cells; experiment: Inhibition of neutrophil adherence to endothelial cells; type: cell-based, human; details: for inhibition of neutrophil adhesion to endothelial cells: fMLP-stimulated human neutrophils, 2 hours, 37° C.; for reversal of inhibition of neutrophil adhesion by adenosine deaminase: with adenosine deaminase 0.125 U/ml
Experimental: The ability of an adenosine kinase inhibitor to affect neutrophil adherence to fibroblasts and endothelial cells was evaluated in a cell culture model.
These incubations were carried out in the presence of fMLP-stimulated human neutrophils isolated from whole blood (1.25×10^6 /ml) with or without adenosine deaminase (0.125 U/ml). At the end of the incubation, the medium was removed and the monolayers of fibroblasts or endothelial cells and adherent neutrophils were fixed by addition of formaldehyde (3.7%) and, after washing to remove non-adherent neutrophils, adherent neutrophils were stained with Weigart's hematoxylin and counted under a light microscope.

[8] = tested on: pentylenetetrazol (PTZ)-induced seizures in mice; experiment: PTZ-induced seizures; type: in vivo, male Swiss Webster mice; details: for attenuation of chemical and electroshock induced seizures: experimental animal models; for oral anticonvulsant activity: 45 minutes prior to PTZ; for Percent Seizure: 45 min prior to PTZ, N = 7; for Seizure Score: mean ± standard deviation
[9] = tested on: canine coronary thrombosis / cyclic flow reductions; experiment: Canine model of platelet-induced coronary thrombosis (Folts; cyclic flow reductions); type: in vivo, dog
Experimental: GP-1-515 was tested in a canine model of platelet-induced coronary thrombosis (Folts, J., Circulation, 1991, 83[Suppl. IV]:IV-3-IV-14). In this model, platelets cyclically aggregate and embolize causing cyclic flow reductions (CFRs) that are quantitated by the frequency and the change in coronary blood flow from low point to peak with each cycle.

[10] = tested on: isolated guinea pig ileum longitudinal muscle; experiment: Inhibition of contraction in isolated ileum; details: for inhibition of contraction in the isolated ileum: electrically stimulated; for reversal of inhibition of contraction: with 8-sulfophenyltheophylline (8SPT) or adenosine deaminase (ADA)
Experimental: The ability of adenosine kinase inhibition to affect stimulated contraction of muscle strips from the isolated ileum has been investigated.
Parallel platinum electrodes were used to deliver electrical current at 1 minute intervals at a voltage adequate to induce contraction of 90% of maximal. The adenosine kinase inhibitors, GP-1-515 or GP-1-547 were added to the tissue baths at different concentrations, with or without either the adenosine receptor antagonist, 8-sulphophenyltheophylline (8SPT) or adenosine deaminase (ADA), and the effects on contraction monitored.

[11] = tested on: anesthetized male dogs; experiment: Preclinical model of stable angina (repeated pacing-induced ischemia); type: in vivo, dog; details: intravenous infusion
Experimental: GP-1-515, was evaluated for its ability to prevent cumulative cardiac dysfunction associated with repeated episodes of pacing-induced ischemia.
Anesthetized male dogs were instrumented to measure regional myocardial wall thickening during right atrial pacing (Young & Mullane, Am. J. Physio., 1991, 261:1570-1577). Animals were subjected to six repeated episodes of pacing. A continuous IV infusion of 1 μg/kg/min of GP-1-515 or saline (control) was administered post pace #1.

[12] = tested on: isolated guinea pig hearts; experiment: Improved functional recovery in isolated hearts (low flow ischemia/reperfusion); details: for Preischemic Flow: Conc. 0.3 (M) as printed; for Functional Recovery: Conc. 0.3 as printed, p < 0.05 vs. Control
Experimental: The ability of a number of adenosine kinase inhibitors to improve the recovery of post-ischemic function was examined in an isolated guinea pig heart model.
Isolated guinea pig hearts were cannulated via the ascending aorta and-attached to a perfusion apparatus according to the method of Langendorff. The hearts were perfused at a constant pressure of 60 cm of H2 O with a modified Krebs-Hanseleit buffer (pH 7.4) at 37° C. Left ventricular developed pressures (LVDP) were monitored continuously using a latex balloon attached to a pressure transducer. Coronary flows were measured gravimetrically by timed collection of pulmonary effluent. Following equilibration of the hearts for a period of 30 minutes, the hearts were subjected to 45 minutes of low flow ischemia, by reducing the perfusion pressure to 10 cm of H2 O, and then reperfused for 30 minutes by restoring the pressure to its original level (60 cm of H2 O). The adenosine kinase inhibitors BP-1-238, GP-1-515 and GP1-547 were added to the perfusion buffer at the final concentrations specified.

OC[C@H]1O[C@@H](n2cnc3c2N=CNC[C@H]3O)C[C@@H]1O [2'-deoxycoformycin]
effect on adenosine release ([1]; inhibition of adenosine deaminase alone): no effect on adenosine release

Nc1ncnc2c1c(I)cn2[C@@H]1O[C@H](CO)[C@@H](O)[C@H]1O [5-iodotubercidin]
effect in ischemia and reperfusion [2]: inconsistent effects | perfusate adenosine concentration [3]: no increase in perfusate adenosine concentration | flaccidity and locomotor activity [4]: pronounced general flaccidity and much-reduced spontaneous locomotor activity | hypothermia [4]: cause hypothermia

NC[C@H]1O[C@@H](n2cnc3c(N)ncnc32)[C@H](O)[C@@H]1O [GP-1-238, 5'-amino-5'-deoxyadenosine]
inhibition of cardiac adenosine kinase in vivo [5]: completely inhibited adenosine kinase in vivo | increase in adenosine release ([1]; together with ADA inhibition): 6 fold | increase of adenosine release without ADA inhibition [6]: not apparent in the absence of ADA inhibition

CNc1ncnc2c1ncn2[C@@H]1O[C@H](CN)[C@@H](O)[C@H]1O [GP-1-272]
inhibition of neutrophil adhesion to endothelial cells [7]: inhibit neutrophil adhesion to endothelial cells; also recorded: dose-dependent inhibition | reversal of inhibition of neutrophil adhesion by adenosine deaminase [7]: reversed by adenosine deaminase treatment; also recorded: reversal of these inhibitions

C[C@H]1O[C@@H](n2cc(I)c3c(N)ncnc32)[C@H](O)[C@@H]1O [GP-1-456, 5'-deoxy-5-iodotubercidin, reference compound]
inhibition of PTZ induced seizures ([8]; IP 1, 5 and 10 mg/kg): dose-dependent inhibition | reversal of inhibition of PTZ induced seizures ([8]; IP […] with theophylline 34 mg/kg or 8-sulfophenyltheophylline 70 mg/kg): reversal of this inhibition by the central adenosine receptor antagonist theophylline but not the peripheral antagonist 8-sulfophenyltheophylline | attenuation of chemical and electroshock induced seizures [8]: potent effects | oral anticonvulsant activity [8]: exhibit oral anticonvulsant activity | inhibition of neutrophil adhesion to endothelial cells [7]: inhibit neutrophil adhesion to endothelial cells; also recorded: dose-dependent inhibition | reversal of inhibition of neutrophil adhesion by adenosine deaminase [7]: reversed by adenosine deaminase treatment; also recorded: reversal of these inhibitions | flaccidity and locomotor activity [4]: pronounced general flaccidity and much-reduced spontaneous locomotor activity | hypothermia [4]: cause hypothermia

NC[C@H]1O[C@@H](n2nc(Br)c3c(N)ncnc32)[C@H](O)[C@@H]1O [GP-1-515]
animals in which CFRs were abolished ([9]; Folts model, dogs): 3 of 8 and 3 out of 8 | frequency and change in flow of CFRs where not abolished ([9]; dog, in vivo): reduced both the frequency and the change in flow | inhibition of contraction in the isolated ileum [10]: Inhibition of contraction; also recorded: attenuate contraction; also recorded: dose-dependent inhibition | reversal of inhibition of contraction [10]: reversal by both 8SPT and ADA; also recorded: reversal of these inhibitions | decline in function / wall thickening with pacing-induced ischemia [11]: attenuates the decline in wall thickening; also recorded: attenuated the decline in function | Preischemic Flow [12]: 6.5 ± 0.3 mL/min/g | Functional Recovery [12]: 79.0 ± 3.4 % preischemic LVDP

NC[C@H]1O[C@@H](n2nc(I)c3c(N)ncnc32)[C@H](O)[C@@H]1O [GP-1-547]
inhibition of contraction in the isolated ileum [10]: Inhibition of contraction; also recorded: attenuate contraction; also recorded: dose-dependent inhibition | reversal of inhibition of contraction [10]: reversal by both 8SPT and ADA; also recorded: reversal of these inhibitions | Preischemic Flow [12]: 6.2 ± 0.3 mL/min/g | Functional Recovery [12]: 79.0 ± 3.1 % preischemic LVDP

C[C@H]1O[C@@H](n2nc(I)c3cncnc32)[C@H](O)[C@@H]1O [GP-1-560, 3-iodo-1-(5'-deoxy-B-D-ribofuranosyl)pyrazolo[3,4-d]pyrimidine]
attenuation of chemical and electroshock induced seizures [8]: potent effects | Latency To First Seizure ([8]; oral 30 mg/kg): 4.5 min | Percent Seizure ([8]; oral 30 mg/kg): 71% | Seizure Score ([8]; oral 30 mg/kg): 0.71 ± 0.5 | Percent Seizure ([8]; oral 50 mg/kg): 43% | Seizure Score ([8]; oral 50 mg/kg): 1.0 ± 0.9 | Latency To First Seizure ([8]; oral 50 mg/kg, p < 0.05 vs. Control): 7.0 min | oral anticonvulsant activity [8]: exhibit oral anticonvulsant activity
